A word on the Kd: it is the constant that tells how readily two partners part at equilibrium.

This note sets out measurements from PMC11269756, “A ligand discovery toolbox for the WWE domain family of human E3 ligases” (Communications Biology, 2024).

Holding throughout (format): binding
One test has as its target T1, DTX1 WWE domain (Homo sapiens, UniProt Q86Y01).
T1 construct: DTX1 (Uniprot ID: Q86Y01, residues 21–184); His6-TEV site (N, cleaved yes); made in house; host or cells: E. coli BL21 (DE3) pRARE2
T1 sequence (Q86Y01 21-184): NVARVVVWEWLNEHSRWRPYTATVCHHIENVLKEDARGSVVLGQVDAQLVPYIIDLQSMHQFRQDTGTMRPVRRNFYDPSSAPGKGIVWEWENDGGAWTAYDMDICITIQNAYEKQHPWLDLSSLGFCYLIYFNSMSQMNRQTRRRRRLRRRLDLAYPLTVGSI
Briefly: 15N-HSQC NMR Kd titration, DTX1 WWE domains. Particulars: 15N-HSQC-NMR titration, mean of selected cross peaks ± SD. An excerpt:
(§1) Protein-observed NMR using isotopically labeled proteins has emerged as one of the most sensitive and widely employed methods for fragment-based screening. Our objective was to generate ^15N-labeled proteins of WWE domain family members, thereby enabling ^15N-HSQC NMR studies. This approach provides a protein-based fragment screening assay to identify and orthogonally validate binders for the WWE domain family proteins. We conducted NMR-based Kd determination assays for HUWE1, DTX1, RNF146, TRIP12, and DTX2 (Fig. 2c–f, Fig. S3). The small size of the WWE domain constructs (10–20 kDa) yielded NMR spectra with well-resolved individual peaks when analyzed on a 600 MHz spectrometer. This facilitated the determination of Kd values for ligands in the fast-exchange regime by monitoring chemical shift perturbations in the ligand titration. […] The adenosine-based ligands were titrated in the range of 62.5 µM to 2 mM for each WWE domain protein. However, due to resource intensive preparation, iso-ADPr was only titrated up to 500 µM. We then plotted the Δδ chemical shifts and ligand concentrations to determine a saturation curve. For each Kd determination, the chemical shifts of at least two separate peaks were analyzed and reported as the mean with standard deviation (Table 1, Figs. S4–7).
(§2) Titration curves were calculated as previously described.

Test [1] deals with T2, TRIP12 WWE domain (isoform 2) (Homo sapiens, UniProt Q14669).
T2 construct: TRIP12-2 (Uniprot ID: Q14669, residues 759–847); His6-TEV site (N, cleaved yes); made in house; host or cells: E. coli BL21 (DE3) pRARE2
Put plainly: 15N-HSQC NMR Kd titration, TRIP12 WWE domain. Particulars: 15N-HSQC-NMR titration, mean of selected cross peaks ± SD.
Source text: as §1, §2

The target of test [2] is T3, HUWE1 WWE domain (Homo sapiens, UniProt Q7Z6Z7).
T3 construct: HUWE1 (Uniprot ID: Q7Z6Z7, residues 1611–1700); His6-TEV site (N, cleaved yes); made in house; host or cells: E. coli BL21 (DE3) pRARE2
T3 sequence (Q7Z6Z7 1611-1700): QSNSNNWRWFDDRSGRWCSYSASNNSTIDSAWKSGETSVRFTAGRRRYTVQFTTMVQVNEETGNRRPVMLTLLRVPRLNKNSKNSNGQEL
Put plainly: 15N-HSQC NMR Kd titration, HUWE1 WWE domain. Particulars: 15N-HSQC-NMR titration, mean of selected cross peaks ± SD.
Source text: as §1, §2
Compound hit confirmation was carried out in single compound samples using the same conditions and parameters as for compound mixtures.

Test [3] concerns the target T4, DTX2 WWE domain (Homo sapiens, UniProt Q86UW9).
T4 construct: DTX2 (Uniprot ID: Q86UW9, residues 3–189); His6-TEV site (N, cleaved yes); made in house; host or cells: E. coli BL21 (DE3) pRARE2
T4 sequence (Q86UW9 3-189): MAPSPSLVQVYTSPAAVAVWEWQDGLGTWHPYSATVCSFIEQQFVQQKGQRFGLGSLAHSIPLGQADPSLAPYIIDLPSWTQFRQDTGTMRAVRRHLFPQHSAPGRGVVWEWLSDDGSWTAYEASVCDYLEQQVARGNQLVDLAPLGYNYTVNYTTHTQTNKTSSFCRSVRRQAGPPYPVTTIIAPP
Put plainly: 15N-HSQC NMR Kd titration, DTX2 WWE domains. Particulars: 15N-HSQC-NMR titration, mean of selected cross peaks ± SD.
Source text: as §1, §2

The next test deals with T5, RNF146 WWE domain (Homo sapiens, UniProt Q9NTX7).
T5 construct: RNF146 (Uniprot ID: Q9NTX7, residues 100-184); His6-TEV site (N, cleaved yes); made in house; host or cells: E. coli BL21 (DE3) pRARE2
T5 sequence (Q9NTX7 100-184): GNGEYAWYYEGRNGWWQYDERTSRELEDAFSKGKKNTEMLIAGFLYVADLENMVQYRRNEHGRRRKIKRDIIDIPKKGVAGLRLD
Briefly: 15N-HSQC NMR Kd titration, RNF146 WWE domain. The conditions noted are these: 15N-HSQC-NMR titration, mean of selected cross peaks ± SD.

For test [4], the target named is T3, HUWE1 WWE domain. Briefly: 19F NMR displacement assay with 2F-ATP (1) reporter, HUWE1. Particulars: 100 µM reporter, 0.5 µM protein, competitor up to 1 mM.
In test [5] the target is T4, DTX2 WWE domain. Put plainly: 19F NMR displacement assay with 2F-ATP (1) reporter, DTX2. Particulars: 100 µM reporter, 0.5 µM protein, competitor up to 1 mM.

Values joined by “and” are separate entries in the source; they are usually repeats but may differ in a detail not shown here. Equal entries are not always repeated. “Also recorded” adds a separate entry of the source. A value given as a limit tells only on which side of the number the result lay.

T2 sequence (Q14669 with tags, fused parts or gaps): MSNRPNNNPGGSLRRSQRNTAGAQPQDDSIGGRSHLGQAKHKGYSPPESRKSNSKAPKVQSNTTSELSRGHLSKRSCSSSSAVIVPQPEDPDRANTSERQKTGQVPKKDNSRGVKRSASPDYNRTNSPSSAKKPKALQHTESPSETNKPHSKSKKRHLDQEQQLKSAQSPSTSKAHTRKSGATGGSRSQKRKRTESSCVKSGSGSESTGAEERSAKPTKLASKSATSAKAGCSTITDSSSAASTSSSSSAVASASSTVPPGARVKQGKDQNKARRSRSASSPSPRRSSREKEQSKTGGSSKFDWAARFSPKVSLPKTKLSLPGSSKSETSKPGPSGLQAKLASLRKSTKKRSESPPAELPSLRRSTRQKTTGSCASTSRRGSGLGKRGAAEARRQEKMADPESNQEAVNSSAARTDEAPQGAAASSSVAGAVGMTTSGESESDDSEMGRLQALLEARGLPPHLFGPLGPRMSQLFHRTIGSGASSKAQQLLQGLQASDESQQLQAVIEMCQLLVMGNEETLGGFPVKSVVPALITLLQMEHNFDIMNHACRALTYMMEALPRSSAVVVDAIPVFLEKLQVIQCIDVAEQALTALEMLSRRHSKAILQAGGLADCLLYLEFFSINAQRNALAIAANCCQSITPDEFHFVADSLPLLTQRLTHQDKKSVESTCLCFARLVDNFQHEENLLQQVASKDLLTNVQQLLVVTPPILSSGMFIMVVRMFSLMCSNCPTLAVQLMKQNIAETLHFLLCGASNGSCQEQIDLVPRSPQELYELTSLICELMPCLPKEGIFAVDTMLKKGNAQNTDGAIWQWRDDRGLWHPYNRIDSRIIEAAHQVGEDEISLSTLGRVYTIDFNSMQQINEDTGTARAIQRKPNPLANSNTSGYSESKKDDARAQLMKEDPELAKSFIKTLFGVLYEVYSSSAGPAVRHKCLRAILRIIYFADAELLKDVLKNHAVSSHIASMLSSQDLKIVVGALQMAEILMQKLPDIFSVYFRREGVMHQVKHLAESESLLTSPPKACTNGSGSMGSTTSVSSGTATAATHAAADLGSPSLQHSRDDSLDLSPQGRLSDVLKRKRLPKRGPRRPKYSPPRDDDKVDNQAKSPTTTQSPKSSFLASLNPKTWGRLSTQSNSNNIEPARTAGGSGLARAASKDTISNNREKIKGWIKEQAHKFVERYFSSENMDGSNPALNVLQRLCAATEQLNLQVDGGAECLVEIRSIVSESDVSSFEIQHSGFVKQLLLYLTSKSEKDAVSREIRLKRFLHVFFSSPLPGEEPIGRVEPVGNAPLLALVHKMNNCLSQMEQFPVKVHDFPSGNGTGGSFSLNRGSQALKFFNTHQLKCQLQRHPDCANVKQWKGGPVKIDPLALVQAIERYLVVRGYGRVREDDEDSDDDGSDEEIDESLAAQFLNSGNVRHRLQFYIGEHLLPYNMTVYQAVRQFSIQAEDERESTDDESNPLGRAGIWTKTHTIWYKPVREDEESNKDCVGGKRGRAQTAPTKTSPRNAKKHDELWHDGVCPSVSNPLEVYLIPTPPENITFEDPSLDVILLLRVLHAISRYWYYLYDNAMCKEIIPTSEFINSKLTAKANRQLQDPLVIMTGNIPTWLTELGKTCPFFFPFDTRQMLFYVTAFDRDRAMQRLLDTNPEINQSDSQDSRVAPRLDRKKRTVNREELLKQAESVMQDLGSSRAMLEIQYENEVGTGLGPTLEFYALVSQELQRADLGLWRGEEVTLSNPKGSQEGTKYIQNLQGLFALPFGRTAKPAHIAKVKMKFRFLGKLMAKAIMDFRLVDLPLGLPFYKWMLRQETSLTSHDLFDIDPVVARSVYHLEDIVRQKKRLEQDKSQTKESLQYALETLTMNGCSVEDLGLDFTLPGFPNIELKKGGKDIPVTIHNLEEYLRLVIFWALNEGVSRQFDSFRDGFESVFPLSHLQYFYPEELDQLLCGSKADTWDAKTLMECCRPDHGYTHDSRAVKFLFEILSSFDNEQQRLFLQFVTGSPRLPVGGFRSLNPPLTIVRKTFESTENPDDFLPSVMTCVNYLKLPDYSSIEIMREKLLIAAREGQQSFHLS

With `Nc1nc(F)nc2c1ncn2[C@@H]1O[C@H](COP(=O)(O)OP(=O)(O)OP(=O)(O)O)[C@@H](O)[C@H]1O` [2F-ATP 1], the Kd at DTX1 WWE domain is 329 ± 115 µM; in test [1] it was 127 ± 9 µM; on HUWE1 WWE domain [2], 30 µM and 27 µM; at DTX2 WWE domain [3], more than 2000 µM; at RNF146 WWE domain, 49 ± 18 µM.

As to `Nc1ncnc2c1ncn2[C@@H]1O[C@H](COP(=O)(O)OP(=O)(O)OP(=O)(O)O)[C@@H](O)[C@H]1F` [2’F-ATP 2], the Kd is 550 ± 111 µM on DTX1 WWE domain; 125 ± 20 µM in test [1]; 15 ± 2 µM on HUWE1 WWE domain [2]; 455 ± 17 µM at DTX2 WWE domain [3]; 114 ± 31 µM on RNF146 WWE domain.

On to `Nc1ncnc2c1ncn2[C@@H]1O[C@H](COP(=O)(O)OP(=O)(O)OP(=O)(O)O)[C@@H](O)[C@H]1O` [ATP], for which the Kd amounted to 659 ± 294 µM at DTX1 WWE domain, 316 ± 22 µM in test [1], 59 ± 5 µM on HUWE1 WWE domain [2] and 802 ± 84 µM at DTX2 WWE domain [3]. Moreover, the “displacement of 19F reporter 2F-ATP (1)” value on HUWE1 WWE domain [4] is on record as “increasing signal intensity”; on DTX2 WWE domain [5], “too weak for displacement”.

Take `O=C(O)CN1C(=O)c2ccccc2C1=O` [compound (3), N-(Carboxymethyl)-phthalimide]: the “displacement of 19F reporter 2F-ATP (1)” value at HUWE1 WWE domain [4] was “no displacement”. The same compound showed a Kd at HUWE1 WWE domain [2] of 1760 µM.

Turning to `O=C(O)CN1C(=O)c2ccc(C(=O)O)cc2C1=O` [compound (4)], the “displacement of 19F reporter 2F-ATP (1)” value at HUWE1 WWE domain [4] is on record as “clear dose-dependent displacement; also recorded: showed displacement”. Besides, the Kd at HUWE1 WWE domain [2] is 202 µM.
